In assay [1] the target is T1, Gal4-RORγ-LBD (Homo sapiens, UniProt P51449).
T1 construct: expressed in transfected cells; host or cells: HEK-293 cells (pcDNA3.1neo plasmid)
T1 sequence (P51449 269-508 limits assumed): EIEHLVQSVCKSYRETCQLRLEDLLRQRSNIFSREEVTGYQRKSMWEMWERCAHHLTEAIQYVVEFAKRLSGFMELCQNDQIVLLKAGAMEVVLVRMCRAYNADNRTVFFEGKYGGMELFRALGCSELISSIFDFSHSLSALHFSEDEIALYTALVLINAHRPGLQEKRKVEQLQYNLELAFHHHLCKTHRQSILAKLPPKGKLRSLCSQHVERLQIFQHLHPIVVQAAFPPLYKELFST
The assay can be described thus: Gal4-RORγ Luciferase Reporter Assay in HEK-293T Cells. As to conditions: HEK-293 cells. Format: cell-based. The essentials:
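HEK-293 cells were transiently co-transfected with Gal4-RORγ-LBD and pGL4.31 Gal4-luciferase, with ursolic acid added at 2 μM final. Compounds were incubated overnight at 37° C. in 0.2% DMSO and luminescence read with One-Glo. Max Response is the upper plateau of a 4-parameter logistic fit, with signal lacking ursolic acid or compound set to 100.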
For orientation: In a reporter assay the amount or activity of a reporter protein is the signal.

In assay [2] the target is T2, RORγ-LBD (Homo sapiens, UniProt P51449).
T2 construct: made in house; host or cells: SF9 cells (baculovirus)
T2 sequence (P51449 269-508 limits assumed): T1 sequence (P51449 269-508 limits assumed)
As to the kind of experiment: RORγ-Ligand Binding Domain (LBD) TR-FRET Assay.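 For TR-FRET Assay Max Response: 665/615 nm ratio relative to signal without ursolic acid or compound set at 100.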 It counts as biochemical. An outline of the steps: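 His-tagged RORγ-LBD from SF9 baculovirus lysate, ~3 nM final, in 50 mM Tris pH 7.0, 50 mM KCl, 1 mM EDTA, 0.1 mM DTT, 0.01% BSA. Biotinylated SRC1 LXXLL peptide at 200 nM final with 2 μM ursolic acid; TR-FRET read-out, 1% DMSO final.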
For orientation: TR-FRET usually uses a lanthanide donor and a delayed reading to cut background.

Where [3] appears, read: luciferase reporter, with 2 μM ursolic acid.

For orientation: EC50 means the concentration that produces a half-maximal response. A higher EC50 goes with a less potent agent.

A value given as a limit tells only on which side of the number the result lay.

Regarding `Cc1noc(C)c1-c1ccc2c(c1)N(S(=O)(=O)c1cccc(C(F)(F)F)c1)C[C@H](CCC(=O)O)O2` [Compound 2BO, (S)-3-(6-(3,5-dimethylisoxazol-4-yl)-4-((3-(trifluoromethyl)-phenyl)sulfonyl)-3,4-dihydro-2H-benzo[b][1,4]oxazin-2-yl)propanoic acid], the EC50 in assay [1] (setting [3]) and in assay [2] was above 10000 nM throughout.
`Cc1cccc(-c2ccc3c(c2)N(S(=O)(=O)c2cccc(C(F)(F)F)c2)C[C@H](CCC(=O)O)O3)c1C` [Compound 2BR, (S)-3-(6-(2,3-dimethylphenyl)-4-((3-(trifluoromethyl)phenyl)-sulfonyl)-3,4-dihydro-2H-benzo[b][1,4]oxazin-2-yl)propanoic acid]: in assay [1] (2 μM ursolic acid), the half-maximal effective concentration (EC50) was below 500 nM and the “Gal4-RORγ Assay Max Response” value is recorded as “** (The symbol “**” indicates a value in the range of greater than 90 to 150)”. In assay [2], the EC50 was below 500 nM and the “TR-FRET Assay Max Response” value is “*** (The symbol “***” indicates a value in the range of greater than 150 to 200)”.
For `O=C(O)CC[C@H]1CN(S(=O)(=O)c2cccc(C(F)(F)F)c2)c2cc(-c3cc(Cl)ccc3F)ccc2O1` [Compound 2C, (S)-3-(6-(5-chloro-2-fluorophenyl)-4-((3-(trifluoromethyl)phenyl)-sulfonyl)-3,4-dihydro-2H-benzo[b][1,4]oxazin-2-yl)propanoic acid], in assay [1] (setting [3]), the EC50 is below 500 nM and the “Gal4-RORγ Assay Max Response” value is given as “** (The symbol “**” indicates a value in the range of greater than 90 to 150)”. In assay [2], the EC50 was below 500 nM and the “TR-FRET Assay Max Response” value is recorded as “*** (The symbol “***” indicates a value in the range of greater than 150 to 200)”.
Consider `O=C(O)CC[C@H]1CN(S(=O)(=O)c2cccc(C(F)(F)F)c2)c2cc(-c3ccc(Cl)c(Cl)c3)ccc2O1` [Compound 2E, (S)-3-(6-(3,4-dichlorophenyl)-4-((3-(trifluoromethyl)phenyl)-sulfonyl)-3,4-dihydro-2H-benzo[b][1,4]oxazin-2-yl)propanoic acid], for which, in assay [1] (setting [3]), the EC50 was below 500 nM and the “Gal4-RORγ Assay Max Response” value is reported as “** (The symbol “**” indicates a value in the range of greater than 90 to 150)”. For the same compound, in assay [2], the EC50 is below 500 nM and the “TR-FRET Assay Max Response” value is “*** (The symbol “***” indicates a value in the range of greater than 150 to 200)”.
On to `O=C(O)CC[C@H]1CN(S(=O)(=O)c2cccc(C(F)(F)F)c2)c2cc(-c3cccc(C(F)(F)F)c3)ccc2O1` [Compound 2G, (S)-3-(6-(3-(trifluoromethyl)phenyl)-4-((3-(trifluoromethyl)phenyl)-sulfonyl)-3,4-dihydro-2H-benzo[b][1,4]oxazin-2-yl)propanoic acid], for which, in assay [1] (setting [3]), the EC50 was below 500 nM and the “Gal4-RORγ Assay Max Response” value is on record as “*** (The symbol “***” indicates a value in the range of greater than 150 to 200)”. Also, in assay [2], the concentration for a half-maximal effect (EC50) was below 500 nM and the “TR-FRET Assay Max Response” value is given as “*** (The symbol “***” indicates a value in the range of greater than 150 to 200)”.
For the compound `O=C(O)CC[C@H]1CN(S(=O)(=O)c2cccc(C(F)(F)F)c2)c2cc(-c3cc(F)cc(Cl)c3)ccc2O1` [Compound 2I, (S)-3-(6-(3-chloro-5-fluorophenyl)-4-((3-(trifluoro-methyl)phenyl)sulfonyl)-3,4-dihydro-2H-benzo[b][1,4]-oxazin-2-yl)propanoic acid], in assay [1] (setting [3]), the EC50 is below 500 nM and the “Gal4-RORγ Assay Max Response” value is given as “*** (The symbol “***” indicates a value in the range of greater than 150 to 200)”. Also, in assay [2], the EC50 was below 500 nM and the “TR-FRET Assay Max Response” value is on record as “*** (The symbol “***” indicates a value in the range of greater than 150 to 200)”.
For the compound `O=C(O)CC[C@H]1CN(S(=O)(=O)c2cccc(C(F)(F)F)c2)c2cc(-c3ccc(F)c(Cl)c3)ccc2O1` [Compound 2J, (S)-3-(6-(3-chloro-4-fluorophenyl)-4-((3-(trifluoromethyl)phenyl)-sulfonyl)-3,4-dihydro-2H-benzo[b][1,4]oxazin-2-yl)propanoic acid], in assay [1] (setting [3]), the EC50 lay within 500 to 5000 nM and the “Gal4-RORγ Assay Max Response” value was “* (The symbol “*” indicates a value in the range of 25 to 90)”. Moreover, in assay [2], the EC50 was below 500 nM and the “TR-FRET Assay Max Response” value is “** (The symbol “**” indicates a value in the range of greater than 90 to 150)”.
Regarding `O=C(O)CC[C@H]1CN(S(=O)(=O)c2cccc(C(F)(F)F)c2)c2cc(-c3cc(Cl)cc(Cl)c3)ccc2O1` [Compound 2L, (S)-3-(6-(3,5-dichlorophenyl)-4-((3-(trifluoromethyl)phenyl)-sulfonyl)-3,4-dihydro-2H-benzo[b][1,4]oxazin-2-yl)propanoic acid], in assay [1] (setting [3]), the EC50 was below 500 nM and the “Gal4-RORγ Assay Max Response” value is “*** (The symbol “***” indicates a value in the range of greater than 150 to 200)”. For the same compound, in assay [2], the 50% effective concentration (EC50) is below 500 nM and the “TR-FRET Assay Max Response” value is “*** (The symbol “***” indicates a value in the range of greater than 150 to 200)”.
As to `O=C(O)CC[C@H]1CN(S(=O)(=O)c2cccc(C(F)(F)F)c2)c2cc(-c3cccc(C(F)(F)F)c3F)ccc2O1` [Compound 2N, (S)-3-(6-(2-fluoro-3-(trifluoromethyl)phenyl)-4-((3-(trifluoromethyl)phenyl)-sulfonyl)-3,4-dihydro-2H-benzo[b][1,4]oxazin-2-yl)propanoic acid], in assay [1] (setting [3]), the EC50 was below 500 nM and the “Gal4-RORγ Assay Max Response” value is recorded as “*** (The symbol “***” indicates a value in the range of greater than 150 to 200)”. Also, in assay [2], the EC50 is below 500 nM and the “TR-FRET Assay Max Response” value is “*** (The symbol “***” indicates a value in the range of greater than 150 to 200)”.
Consider `O=C(O)CC[C@H]1CN(S(=O)(=O)c2cccc(C(F)(F)F)c2)c2cc(-c3cc(C(F)(F)F)ccc3F)ccc2O1` [Compound 2O, (S)-3-(6-(2-fluoro-5-(trifluoromethyl)phenyl)-4-((3-(trifluoromethyl)phenyl)-sulfonyl)-3,4-dihydro-2H-benzo[b][1,4]oxazin-2-yl)propanoic acid], for which, in assay [1] (setting [3]), the 50% effective concentration (EC50) is below 500 nM and the “Gal4-RORγ Assay Max Response” value is recorded as “*** (The symbol “***” indicates a value in the range of greater than 150 to 200)”. In addition, in assay [2], the concentration for a half-maximal effect (EC50) was below 500 nM and the “TR-FRET Assay Max Response” value is “*** (The symbol “***” indicates a value in the range of greater than 150 to 200)”.
`Cc1ccccc1-c1ccc2c(c1)N(S(=O)(=O)c1cccc(C(F)(F)F)c1)C[C@H](CCC(=O)O)O2` [Compound 2P, (S)-3-(6-(o-tolyl)-4-((3-(trifluoromethyl)phenyl)-sulfonyl)-3,4-dihydro-2H-benzo[b][1,4]oxazin-2-yl)propanoic acid]: in assay [1] (setting [3]), the EC50 is below 500 nM and the “Gal4-RORγ Assay Max Response” value is listed as “*** (The symbol “***” indicates a value in the range of greater than 150 to 200)”. Further, in assay [2], the EC50 is below 500 nM and the “TR-FRET Assay Max Response” value is listed as “*** (The symbol “***” indicates a value in the range of greater than 150 to 200)”.
With `Cc1cccc(-c2ccc3c(c2)N(S(=O)(=O)c2cccc(C(F)(F)F)c2)C[C@H](CCC(=O)O)O3)c1` [Compound 2Q, (S)-3-(6-(m-tolyl)-4-((3-(trifluoromethyl)phenyl)-sulfonyl)-3,4-dihydro-2H-benzo[b][1,4]oxazin-2-yl)propanoic acid], in assay [1] (setting [3]), the EC50 was below 500 nM and the “Gal4-RORγ Assay Max Response” value is listed as “*** (The symbol “***” indicates a value in the range of greater than 150 to 200)”. In addition, in assay [2], the EC50 was below 500 nM and the “TR-FRET Assay Max Response” value is recorded as “*** (The symbol “***” indicates a value in the range of greater than 150 to 200)”.
On to `O=C(O)CC[C@H]1CN(S(=O)(=O)c2cccc(C(F)(F)F)c2)c2cc(-c3cccc(Cl)c3F)ccc2O1` [Compound 2R, (S)-3-(6-(3-chloro-2-fluorophenyl)-4-((3-(trifluoromethyl)phenyl)-sulfonyl)-3,4-dihydro-2H-benzo[b][1,4]oxazin-2-yl)propanoic acid], for which, in assay [1] (setting [3]), the EC50 is below 500 nM and the “Gal4-RORγ Assay Max Response” value is “*** (The symbol “***” indicates a value in the range of greater than 150 to 200)”. In addition, in assay [2], the EC50 is below 500 nM and the “TR-FRET Assay Max Response” value is reported as “**** (The symbol “****” indicates a value greater than 200)”.
On to `COc1ccc(Cl)cc1-c1ccc2c(c1)N(S(=O)(=O)c1cccc(C(F)(F)F)c1)C[C@H](CCC(=O)O)O2` [Compound 2S, (S)-3-(6-(5-chloro-2-methoxyphenyl)-4-((3-(trifluoromethyl)phenyl)-sulfonyl)-3,4-dihydro-2H-benzo[b][1,4]oxazin-2-yl)propanoic acid], for which, in assay [1] (setting [3]), the 50% effective concentration (EC50) was below 500 nM and the “Gal4-RORγ Assay Max Response” value is listed as “** (The symbol “**” indicates a value in the range of greater than 90 to 150)”. For the same compound, in assay [2], the EC50 is below 500 nM and the “TR-FRET Assay Max Response” value was “**** (The symbol “****” indicates a value greater than 200)”.
Take `COc1ccccc1-c1ccc2c(c1)N(S(=O)(=O)c1cccc(C(F)(F)F)c1)C[C@H](CCC(=O)O)O2` [Compound 2T, (S)-3-(6-(2-methoxyphenyl)-4-((3-(trifluoromethyl)phenyl)-sulfonyl)-3,4-dihydro-2H-benzo[b][1,4]oxazin-2-yl)propanoic acid]: in assay [1] (setting [3]), the EC50 is below 500 nM and the “Gal4-RORγ Assay Max Response” value is listed as “*** (The symbol “***” indicates a value in the range of greater than 150 to 200)”. Besides, in assay [2], the concentration for a half-maximal effect (EC50) is below 500 nM and the “TR-FRET Assay Max Response” value is listed as “**** (The symbol “****” indicates a value greater than 200)”.
